Experiments:
[1] = cited from earlier work
[2] = room temperature, water; cited from earlier work
[3] = Solubility of Rebaudioside D (crystalline vs amorphous) in water; format: physicochemical; conditions: for water solubility: room temperature, g per 100 g solvent
Procedure: Hereinafter, unless specified otherwise the solubility of material is determined in RO (reverse osmosis) water at room temperature. […] The solution was maintained at 50° C. and dried using a YC-015 laboratory spray drier (Shanghai Pilotech Instrument & Equipment Co. Ltd., China) operating at 175° C. inlet and 100° C. outlet temperatures.

water solubility [3]	Compound	Rate of dissolution in H2O at 25° C. (in words) [1]	Rate of dissolution in H2O at 25° C., amount dissolved in 5 minutes [1]	other results
–	C=C1C[C@@]23CC[C@H]4[C@@](C)(CCC[C@@]4(C)C(=O)O[C@@H]4O[C@H](CO)[C@@H](O)[C@H](O)[C@H]4O)[C@@H]2CC[C@]1(O[C@@H]1O[C@H](CO)[C@@H](O)[C@H](O[C@@H]2O[C@H](CO)[C@@H](O)[C@H](O)[C@H]2O)[C@H]1O[C@@H]1O[C@H](CO)[C@@H](O)[C@H](O)[C@H]1O)C3 [Form 1, Rebaudioside A]	Very low	–	Rate of dissolution in H2O at 25° C., amount dissolved in 60 minutes ([1]; in 60 minutes): (<0.2% in 60
–	C=C1C[C@@]23CC[C@H]4[C@@](C)(CCC[C@@]4(C)C(=O)O[C@@H]4O[C@H](CO)[C@@H](O)[C@H](O)[C@H]4O)[C@@H]2CC[C@]1(O[C@@H]1O[C@H](CO)[C@@H](O)[C@H](O[C@@H]2O[C@H](CO)[C@@H](O)[C@H](O)[C@H]2O)[C@H]1O[C@@H]1O[C@H](CO)[C@@H](O)[C@H](O)[C@H]1O)C3 [Form 2, Rebaudioside A]	Intermediate	(<30% in 5	–
–	C=C1C[C@@]23CC[C@H]4[C@@](C)(CCC[C@@]4(C)C(=O)O[C@@H]4O[C@H](CO)[C@@H](O)[C@H](O)[C@H]4O)[C@@H]2CC[C@]1(O[C@@H]1O[C@H](CO)[C@@H](O)[C@H](O[C@@H]2O[C@H](CO)[C@@H](O)[C@H](O)[C@H]2O)[C@H]1O[C@@H]1O[C@H](CO)[C@@H](O)[C@H](O)[C@H]1O)C3 [Form 3, Rebaudioside A]	High	(>30% in 5	–
–	C=C1C[C@@]23CC[C@H]4[C@@](C)(CCC[C@@]4(C)C(=O)O[C@@H]4O[C@H](CO)[C@@H](O)[C@H](O)[C@H]4O)[C@@H]2CC[C@]1(O[C@@H]1O[C@H](CO)[C@@H](O)[C@H](O[C@@H]2O[C@H](CO)[C@@H](O)[C@H](O)[C@H]2O)[C@H]1O[C@@H]1O[C@H](CO)[C@@H](O)[C@H](O)[C@H]1O)C3 [Form 4, Rebaudioside A]	High	(>35% in 5	–
–	C=C1C[C@@]23CC[C@H]4[C@@](C)(CCC[C@@]4(C)C(=O)O[C@@H]4O[C@H](CO)[C@@H](O)[C@H](O)[C@H]4O)[C@@H]2CC[C@]1(O[C@@H]1O[C@H](CO)[C@@H](O)[C@H](O[C@@H]2O[C@H](CO)[C@@H](O)[C@H](O)[C@H]2O)[C@H]1O[C@@H]1O[C@H](CO)[C@@H](O)[C@H](O)[C@H]1O)C3 [Rebaudioside A]	–	–	thermodynamic equilibrium solubility [2]: 0.8%
0.05%	C=C1C[C@@]23CC[C@H]4[C@@](C)(CCC[C@@]4(C)C(=O)O[C@@H]4O[C@H](CO)[C@@H](O)[C@H](O)[C@H]4O[C@@H]4O[C@H](CO)[C@@H](O)[C@H](O)[C@H]4O)[C@@H]2CC[C@]1(O[C@@H]1O[C@H](CO)[C@@H](O)[C@H](O[C@@H]2O[C@H](CO)[C@@H](O)[C@H](O)[C@H]2O)[C@H]1O[C@@H]1O[C@H](CO)[C@@H](O)[C@H](O)[C@H]1O)C3 [Rebaudioside D]	–	–	water solubility when heat is applied ([3]; heated, upon cooling to room temperature crystallizes back out): up to 0.5%
0.2%	C=C1C[C@@]23CC[C@H]4[C@@](C)(CCC[C@@]4(C)C(=O)O[C@@H]4O[C@H](CO)[C@@H](O)[C@H](O)[C@H]4O[C@@H]4O[C@H](CO)[C@@H](O)[C@H](O)[C@H]4O)[C@@H]2CC[C@]1(O[C@@H]1O[C@H](CO)[C@@H](O)[C@H](O[C@@H]2O[C@H](CO)[C@@H](O)[C@H](O)[C@H]2O)[C@H]1O[C@@H]1O[C@H](CO)[C@@H](O)[C@H](O)[C@H]1O)C3 [amorphous Reb D, Rebaudioside D]	–	–	–
0.05%	C=C1C[C@@]23CC[C@H]4[C@@](C)(CCC[C@@]4(C)C(=O)O[C@@H]4O[C@H](CO)[C@@H](O)[C@H](O)[C@H]4O[C@@H]4O[C@H](CO)[C@@H](O)[C@H](O)[C@H]4O)[C@@H]2CC[C@]1(O[C@@H]1O[C@H](CO)[C@@H](O)[C@H](O[C@@H]2O[C@H](CO)[C@@H](O)[C@H](O)[C@H]2O)[C@H]1O[C@@H]1O[C@H](CO)[C@@H](O)[C@H](O)[C@H]1O)C3 [crystalline Rebaudioside D, Rebaudioside D]	–	–	Solubility, % (in water) 20° C. ([3]; water, 20° C.): 0.05%; Solubility, % (in water) 50° C.* ([3]; water, 50° C., solution crystallized after cooling to room temperature (20° C.)): 0.2%; Solubility, % (in water) 100° C.* ([3]; water, 100° C., solution crystallized after cooling to room temperature (20° C.)): 0.5%

Source: patent US11950611B2, “Highly soluble Rebaudioside D” (PURECIRCLE SDN BHD, priority 2013, dated 2024)
